Blank lines part the entries; values can stand above or below the compound they belong to.
Tests used:
[1] = test system: Rattus norvegicus; test: Biodistribution was measured in blood of rat by injecting the radiolabeled compound intravenously and the value measured after 2 min; assay type: ADME, organism-based; conditions: in vivo, iv
[2] = test system: Rattus norvegicus; test: Biodistribution was measured in rat muscle by injecting the radiolabeled compound intravenously and the value measured after 30 min; assay type: ADME, organism-based, Muscle tissue; conditions: in vivo, iv, 0.5 h
[3] = test system: Rattus norvegicus; test: Biodistribution was measured in rat muscle by injecting the radiolabeled compound intravenously and the value measured after 60 min; assay type: ADME, organism-based, Muscle tissue; conditions: in vivo, iv, 1 h
[4] = test system: Rattus norvegicus; test: Biodistribution was measured in rat spleen by injecting the radiolabeled compound intravenously and the value measured after 60 min; assay type: ADME, organism-based; conditions: in vivo, iv, 1 h
[5] = test system: Rattus norvegicus; test: Biodistribution was measured in rat striatum by injecting the radiolabeled compound intravenously and the value measured after 2 min; assay type: ADME, organism-based; conditions: in vivo, iv
[6] = test system: Rattus norvegicus; test: Biodistribution was measured in rat striatum by injecting the radiolabeled compound intravenously and the value measured after 30 min; assay type: ADME, organism-based; conditions: in vivo, iv, 0.5 h
[7] = test system: Rattus norvegicus; test: Biodistribution was measured in rat striatum by injecting the radiolabeled compound intravenously and the value measured after 60 min; assay type: ADME, organism-based; conditions: in vivo, iv, 1 h
[8] = test system: Rattus norvegicus; test: Biodistribution was measured in rat thyroid by injecting the radiolabeled compound intravenously and the value measured after 2 min; assay type: ADME, organism-based, Thyroid gland; conditions: in vivo, iv
[9] = test system: Rattus norvegicus; test: Biodistribution was measured in rat thyroid by injecting the radiolabeled compound intravenously and the value measured after 30 min; assay type: ADME, organism-based, Thyroid gland; conditions: in vivo, iv, 0.5 h
[10] = test system: Rattus norvegicus; test: Biodistribution was measured in rat thyroid by injecting the radiolabeled compound intravenously and the value measured after 60 min; assay type: ADME, organism-based, Thyroid gland; conditions: in vivo, iv, 1 h
[11] = test system: Rattus norvegicus; test: Biodistribution was measured in rat skin by injecting the radiolabeled compound intravenously and the value measured after 30 min; assay type: ADME, organism-based, Zone of skin; conditions: in vivo, iv, 0.5 h
[12] = test system: Rattus norvegicus; test: Biodistribution was measured in rat spleen by injecting the radiolabeled compound intravenously and the value measured after 2 min; assay type: ADME, organism-based; conditions: in vivo, iv
[13] = test system: Rattus norvegicus; test: Biodistribution was measured in rat spleen by injecting the radiolabeled compound intravenously and the value measured after 30 min; assay type: ADME, organism-based; conditions: in vivo, iv, 0.5 h
[14] = test system: Rattus norvegicus; test: Biodistribution was measured in rat liver by injecting the radiolabeled compound intravenously and the value measured after 30 min; assay type: ADME, organism-based; conditions: in vivo, iv, 0.5 h
[15] = test system: Rattus norvegicus; test: Biodistribution was measured in rat liver by injecting the radiolabeled compound intravenously and the value measured after 60 min; assay type: ADME, organism-based; conditions: in vivo, iv, 1 h
[16] = test system: Rattus norvegicus; test: Biodistribution was measured in rat lung by injecting the radiolabeled compound intravenously and the value measured after 2 min; assay type: ADME, organism-based; conditions: in vivo, iv
[17] = test system: Rattus norvegicus; test: Biodistribution was measured in rat lung by injecting the radiolabeled compound intravenously and the value measured after 30 min; assay type: ADME, organism-based; conditions: in vivo, iv, 0.5 h
[18] = test system: Rattus norvegicus; test: Biodistribution was measured in rat lung by injecting the radiolabeled compound intravenously and the value measured after 60 min; assay type: ADME, organism-based; conditions: in vivo, iv, 1 h
[19] = test system: Rattus norvegicus; test: Biodistribution was measured in rat muscle by injecting the radiolabeled compound intravenously and the value measured after 2 min; assay type: ADME, organism-based, Muscle tissue; conditions: in vivo, iv
[20] = test system: Rattus norvegicus; test: Biodistribution was measured in blood of rat by injecting the radiolabeled compound intravenously and the value measured after 60 min; assay type: ADME, organism-based; conditions: in vivo, iv, 1 h
[21] = Biodistribution was measured in hippocampus region(HP/CB) by injecting the radiolabeled compound intravenously and the value measured after 2 min; assay type: ADME, organism-based; conditions: in vivo, iv
[22] = Biodistribution was measured in hippocampus region(HP/CB) by injecting the radiolabeled compound intravenously and the value measured after 30 min; assay type: ADME, organism-based; conditions: in vivo, iv, 0.5 h
[23] = Biodistribution was measured in hippocampus region(HP/CB) by injecting the radiolabeled compound intravenously and the value measured after 60 min; assay type: ADME, organism-based; conditions: in vivo, iv, 1 h
[24] = test system: Rattus norvegicus; test: Biodistribution was measured in rat brain by injecting the radiolabeled compound intravenously and the value measured after 2 min; assay type: ADME, organism-based; conditions: in vivo, iv
[25] = test system: Rattus norvegicus; test: Biodistribution was measured in rat brain by injecting the radiolabeled compound intravenously and the value measured after 30 min; assay type: ADME, organism-based; conditions: in vivo, iv, 0.5 h
[26] = test system: Rattus norvegicus; test: Biodistribution was measured in rat brain by injecting the radiolabeled compound intravenously and the value measured after 60 min; assay type: ADME, organism-based; conditions: in vivo, iv, 1 h
[27] = test system: Rattus norvegicus; test: Biodistribution was measured in rat cerebellum by injecting the radiolabeled compound intravenously and the value measured after 30 min; assay type: ADME, organism-based; conditions: in vivo, iv, 0.5 h
[28] = test system: Rattus norvegicus; test: Biodistribution was measured in rat cerebellum by injecting the radiolabeled compound intravenously and the value measured after 60 min; assay type: ADME, organism-based; conditions: in vivo, iv, 1 h
[29] = test system: Rattus norvegicus; test: Biodistribution was measured in rat cortex by injecting the radiolabeled compound intravenously and the value measured after 2 min; assay type: ADME, organism-based; conditions: in vivo, iv
[30] = test system: Rattus norvegicus; test: Biodistribution was measured in rat cortex by injecting the radiolabeled compound intravenously and the value measured after 30 min; assay type: ADME, organism-based; conditions: in vivo, iv, 0.5 h
[31] = test system: Rattus norvegicus; test: Biodistribution was measured in rat cortex by injecting the radiolabeled compound intravenously and the value measured after 60 min; assay type: ADME, organism-based; conditions: in vivo, iv, 1 h
[32] = test system: Rattus norvegicus; test: Biodistribution was measured in rat heart by injecting the radiolabeled compound intravenously and the value measured after 2 min; assay type: ADME, organism-based; conditions: in vivo, iv
[33] = test system: Rattus norvegicus; test: Biodistribution was measured in rat heart by injecting the radiolabeled compound intravenously and the value measured after 30 min; assay type: ADME, organism-based; conditions: in vivo, iv, 0.5 h
[34] = test system: Rattus norvegicus; test: Biodistribution was measured in rat heart by injecting the radiolabeled compound intravenously and the value measured after 60 min; assay type: ADME, organism-based; conditions: in vivo, iv, 1 h
[35] = test system: Rattus norvegicus; test: Biodistribution was measured in rat hippocampus by injecting the radiolabeled compound intravenously and the value measured after 2 min; assay type: ADME, organism-based; conditions: in vivo, iv
[36] = test system: Rattus norvegicus; test: Biodistribution was measured in rat hippocampus by injecting the radiolabeled compound intravenously and the value measured after 60 min; assay type: ADME, organism-based; conditions: in vivo, iv, 1 h
[37] = test system: Rattus norvegicus; test: Biodistribution was measured in rat kidney by injecting the radiolabeled compound intravenously and the value measured after 2 min; assay type: ADME, organism-based; conditions: in vivo, iv
[38] = test system: Rattus norvegicus; test: Biodistribution was measured in rat kidney by injecting the radiolabeled compound intravenously and the value measured after 30 min; assay type: ADME, organism-based; conditions: in vivo, iv, 0.5 h
[39] = test system: Rattus norvegicus; test: Biodistribution was measured in rat liver by injecting the radiolabeled compound intravenously and the value measured after 2 min; assay type: ADME, organism-based; conditions: in vivo, iv
[40] = test system: Rattus norvegicus; test: Biodistribution was measured in rat cerebellum by injecting the radiolabeled compound intravenously and the value measured after 2 min; assay type: ADME, organism-based; conditions: in vivo, iv
[41] = test system: Rattus norvegicus; test: Biodistribution was measured in rat hippocampus by injecting the radiolabeled compound intravenously and the value measured after 30 min; assay type: ADME, organism-based; conditions: in vivo, iv, 0.5 h
[42] = test system: Rattus norvegicus; test: Biodistribution was measured in rat skin by injecting the radiolabeled compound intravenously and the value measured after 60 min; assay type: ADME, organism-based, Zone of skin; conditions: in vivo, iv, 1 h
[43] = test system: Rattus norvegicus; test: Biodistribution was measured in blood of rat by injecting the radiolabeled compound intravenously and the value measured after 30 min; assay type: ADME, organism-based; conditions: in vivo, iv, 0.5 h
[44] = test system: Rattus norvegicus; test: Biodistribution was measured in rat kidney by injecting the radiolabeled compound intravenously and the value measured after 60 min; assay type: ADME, organism-based; conditions: in vivo, iv, 1 h
[45] = target: T1, 5-hydroxytryptamine receptor 1A (Rattus norvegicus, UniProt P19327)
T1 sequence (P19327 whole entry): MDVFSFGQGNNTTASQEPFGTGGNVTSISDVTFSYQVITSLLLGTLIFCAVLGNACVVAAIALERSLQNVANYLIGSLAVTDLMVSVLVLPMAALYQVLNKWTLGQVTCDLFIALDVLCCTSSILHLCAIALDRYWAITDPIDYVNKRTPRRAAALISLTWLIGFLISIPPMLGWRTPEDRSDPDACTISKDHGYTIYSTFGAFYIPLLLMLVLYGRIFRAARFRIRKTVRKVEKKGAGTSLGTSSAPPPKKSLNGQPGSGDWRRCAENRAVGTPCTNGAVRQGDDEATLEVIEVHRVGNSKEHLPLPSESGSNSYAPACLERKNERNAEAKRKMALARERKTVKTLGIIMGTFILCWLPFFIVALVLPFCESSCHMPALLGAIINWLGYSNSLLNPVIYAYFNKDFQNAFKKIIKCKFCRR
Description: (§1) In vitro binding affinity for 5-hydroxytryptamine 1A receptor in rat hippocampal membranes by [125I]-labeled agonist displacement.

[46] = target: T1, 5-hydroxytryptamine receptor 1A; remark: listed apart in the source
Description: as §1

Biodistribution [1]: 5.6 % dose organ-1
Biodistribution [2]: 19.08 % dose organ-1
Biodistribution [3]: 9.05 % dose organ-1
Biodistribution [4]: 0.15 % dose organ-1
Biodistribution [5]: 0.55 % dose organ-1
Biodistribution [6]: 0.15 % dose organ-1
Biodistribution [7]: 0.053 % dose organ-1
Biodistribution [8]: 0.06 % dose organ-1
Biodistribution [9]: 0.04 % dose organ-1
Biodistribution [10]: 0.03 % dose organ-1
Biodistribution [11]: 7.41 % dose organ-1
Biodistribution [12]: 0.27 % dose organ-1
Biodistribution [13]: 0.22 % dose organ-1
Biodistribution [14]: 23.02 % dose organ-1
Biodistribution [15]: 17.95 % dose organ-1
Biodistribution [16]: 1.54 % dose organ-1
Biodistribution [17]: 0.75 % dose organ-1
Biodistribution [18]: 0.42 % dose organ-1
Biodistribution [19]: 14.07 % dose organ-1
Biodistribution [20]: 2.08 % dose organ-1
Biodistribution [21]: 1.02 % dose organ-1
Biodistribution [22]: 1.08 % dose organ-1
Biodistribution [23]: 0.88 % dose organ-1
Biodistribution [24]: 0.71 % dose organ-1
Biodistribution [25]: 0.21 % dose organ-1
Biodistribution [26]: 0.08 % dose organ-1
Biodistribution [27]: 0.12 % dose organ-1
Biodistribution [28]: 0.051 % dose organ-1
Biodistribution [29]: 0.57 % dose organ-1
Biodistribution [30]: 0.14 % dose organ-1
Biodistribution [31]: 0.048 % dose organ-1
Biodistribution [32]: 0.77 % dose organ-1
Biodistribution [33]: 0.33 % dose organ-1
Biodistribution [34]: 0.18 % dose organ-1
Biodistribution [35]: 0.47 % dose organ-1
Biodistribution [36]: 0.045 % dose organ-1
Biodistribution [37]: 3.02 % dose organ-1
Biodistribution [38]: 2.2 % dose organ-1
Biodistribution [39]: 19.49 % dose organ-1
Biodistribution [40]: 0.46 % dose organ-1
Biodistribution [41]: 0.13 % dose organ-1
Biodistribution [42]: 6.93 % dose organ-1
Biodistribution [43]: 3.45 % dose organ-1
Biodistribution [44]: 1 % dose organ-1
Ki [45]: 2.54 nM
Ki [46]: 2.54 nM
SMILES: COc1ccccc1N1CCN(CCN2C(=O)CCC2c2ccc(I)cc2)CC1 (stereo not drawn)

Ki [45]: 6.5 nM
SMILES: COc1ccccc1N1CCN(CCN2C(=O)c3ccccc3C2c2ccccn2)CC1 (stereo not drawn)

Ki [45]: 0.2 nM
SMILES: COc1ccccc1N1CCN(CCN(C(=O)c2ccc(I)cc2)c2ccccn2)CC1

— ChEMBL document CHEMBL1131309, “Isoindol-1-one analogues of 4-(2'-methoxyphenyl)-1-[2'-[N-(2"-pyridyl)-p-iodobenzamido]ethyl]pipera zine (p-MPPI) as 5-HT1A receptor ligands” (J Med Chem, 1998)
